Measured values published in patent US8613941B1, “Synergistic antimicrobial composition” (Dow Global Technologies LLC, priority 2012, dated 2013).

Experiments:
oilfield SRB consortium = test: Biocidal efficacy against anaerobic bacteria for a high temperature and sulfide-rich environment; type: cell-based, sulfate reducing bacteria (SRB); conditions: alone or in the blend, 80° C., 7 days, 10 ppm sulfide ion, 10^4 to 10^5 CFU/mL
Procedure: Inside an anaerobic chamber (BACTRON IV), biocides solutions were challenged with 10^4 to 10^5 CFU/mL of an oilfield SRB consortium and 10 ppm sulfide ion (added in the form of sodium sulfide). The biocide solutions were then incubated at 80° C. under anaerobic condition for 7 days. Then the biocidal efficacy was evaluated against the field SRB consortium. The biocidal efficacy was determined by the biocide dosage required for 99.999% bacterial reduction. Synergy Index was then calculated. Table 2 summarizes the efficacy of each biocide and their blends, and the Synergy Index* of each combination.

[1] = system: oil field isolated anaerobic consortium, mainly SRB; test: Biocidal efficacy (MBC) of THPS, Tris Nitro and combination against sulfate reducing bacteria; type: cell-based, sulfate reducing bacteria (SRB); conditions: alone or in the blend, minimum tested biocide concentration for bacteria kill, 40° C., 24 hours, 10^6 to 10^7 CFU/mL
Procedure: Inside an anaerobic chamber (BACTRON anaerobic chamber), a deaerated sterile salt solution (3.1183 g of NaCl, 1.3082 mg of NaHCO3, 47.70 mg of KCl, 72.00 mg of CaCl2, 54.49 mg of MgSO4, 172.28 mg of Na2SO4, 43.92 mg of Na2CO3 in 1 L water) was contaminated with an oil field isolated anaerobic consortium, mainly SRB, at final bacterial concentrations of 10^6 to 10^7 CFU/mL. The aliquots of this contaminated water were then treated with THPS and Tris Nitro, or the THPS/Tris Nitro combination at different active concentration levels. After the mixtures were incubated at 40° C. for 24 hours, the biocidal efficacy was determined by minimum tested biocide concentration for bacteria kill in the aliquots (MBC). Table 1 summarizes the efficacy of each biocide and their blends, and the Synergy Index* of each combination.

| Compound | Concentration (active ppm) required for 99.999% bacterial reduction, THPS (oilfield SRB consortium; THPS concentration) [active ppm] | Average MBC (active ppm), THPS ([1]; THPS concentration) [active ppm] | Concentration (active ppm) required for 99.999% bacterial reduction, Tris Nitro (oilfield SRB consortium; Tris Nitro concentration) [active ppm] | Average MBC (active ppm), Tris Nitro ([1]; Tris Nitro concentration) [active ppm] |
| --- | --- | --- | --- | --- |
| tetrakis(hydroxymethyl)phosphonium sulfate [1:0] | 360.0 | 6.1 |  |  |
| O=[N+]([O-])C(CO)(CO)CO [0:1, tris(hydroxymethyl)nitromethane] |  |  | 360 | 46.1 |
